Patent US20250333376A1, “CRYSTAL FORMS OF BMX AND PREPARATION THEREOF” (Novelwise Pharmaceutical Corporation, priority 2024, published 2025)
Converted amounts (≈) assume the structure as drawn. “Also recorded” adds a separate entry of the source. Like-named read-outs stand apart in the source and are kept apart here.

What was measured:
Type in all cases: physicochemical
[1] = Photo stress stability, amorphous form versus Crystal Form A; details: for Degradation: 48 hours of exposure to photo-stress conditions (cool white fluorescent lamp and UV fluorescent lamp 320-400 nm)
Source text: The amorphous Form and the Crystal Form A of Compound BMX samples were exposed at a cool white fluorescent lamp that has an output similar to that specified by ISO 10977 and UV fluorescent lamp with a spectral distribution from 320 nm to 400 nm for evaluating the photo stress stability.

[2] = Competitive slurry experiments to determine the most stable polymorphic form; details: competitive slurry in 2-propanol, XRPD
Method: No material of Crystal Form C, D, or E was available since these could not be reproduced. The competitive slurry was performed using Crystal Forms B, […], F and poorly crystalline material, with 10 mg of each form being added in two 1 mL vials.
The competitive slurry experiment in 2-methyl tetrahydrofuran gave a clear solution and the experiment in 2-propanol gave a white slurry.

[3] = Solubility of Crystal Form A in process solvents and aqueous buffer systems; details: for solubility at 24 h: thermodynamic from solid
Method: The solubility of this form was tested in the process solvents (Ethyl acetate and hexane) and in aqueous buffer systems. 100 mg of Crystal Form A of Compound BMX was weighed into 4 mL vials with 2 mL of the specified solvent/aqueous buffer system being added. These solutions were shaken at room temperature for 24 hours. The pH was monitored in time and remained in the correct range. Samples were filtered and diluted (5× in ACN/MeOH 1/1) and measured using H PLC. The concentration of the samples is determined using a calibration line.

[4] = Hygroscopicity determination by DVS
Method: The hygroscopicity of the Crystal Form A of Compound BMX was determined using Surface Measurement Systems Ltd. DVS resolution equipment. The sample was loaded into balance pan, typically 10-30 mg, and equilibrated at 0% relative humidity (RH). When the material has dried, the RH is increased with 10% per step for 1 hour per increment, ending at 95% RH. After completion of the sorption cycle, the sample was dried using the same method. […] The software used for data collection is DVS Control Software for 21 CFR Part 11 v1.0.3.0. Data analysis is performed using DVS Standard Analysis Suite v7.2.0.9 (Standard).

[5] = Stability test of Form B slurried in water
[6] = Stability of polymorphic forms stored at 40° C./75% RH for 4 days
Method: Both Crystal Form A and Crystal Form D were found in different solvent combinations using different crystallization techniques. […] Crystal Form C was only observed once, being found in a slurry experiment at 50° C. in DMSO/Ethanol (60/40-%). […] All plates were stored at 40° C./75% RH for 4 days in order to determine the stability of the polymorphic forms.

[7] = Solubility of amorphous material of Compound BMX by the shake flask method; details: for solubility at 24 h / solubility at 15 min: organic solvent or mixture, thermodynamic from solid, shake flask
Method: The solubility of amorphous material of Compound BMX was determined by the shake flask method. The amorphous material was obtained by dissolving 500 mg of the Crystal From A of Compound BMX in 10 mL dichloromethane, this solution was evaporated to dryness in vacuum conditions (0 mbar, RT).
The solvents for the solubility determination were selected based on the Principal Component Analysis (PCA) of properties, which means that some pharmaceutically unattractive solvents were included to create a better understanding of the parameter space. The Principal Component Analysis focusses on polarity, polarizability and hydrogen bonding.
Subsequently, the samples were filtered and diluted for LC analysis and the concentration is determined using a calibration line.

[8] = solvent Methyl-tert-butyl ether

## COc1ccc(COc2c(/C=C/C(=O)NO)ccc(OC)c2CC=C(C)C)cc1 [Crystal Form A]
[1]
  Degradation: 10%
[1]; photo-stress, 48 hours
  Stability under stress conditions compared with the amorphous form: significantly more stable than the amorphous form
[2]
  Most stable polymorphic form: most stable form
[2]; listed as Cystal Form A
  Most stable polymorphic form: thermodynamically most stable form
[3]; Ethyl acetate, room temperature, 24 hours
  Solubility: 20780 µg/mL (≈ 52.3 mM)
[3]; FaSSIF, pH 6.5, fassif, pH 6.5, room temperature, 24 hours
  solubility at 24 h: 10 µg/mL (≈ 0.0252 mM)
[3]; FeSSIF, pH 5.8, fessif, pH 5.8, room temperature, 24 hours
  solubility at 24 h: 180 µg/mL (≈ 0.453 mM)
[3]; Hexane, water, FaSSGF, FASSIF and phosphate buffer pH 7.4
  Solubility (in words): insoluble
[3]; all solvents/buffers of Table 6, 24 hours at room temperature
  Changes in polymorphic form after solubility test (XRPD): No changes in polymorphic form were observed
[3]; ethyl acetate, organic solvent or mixture, room temperature, 24 hours
  solubility at 24 h: 20800 µg/mL (≈ 52.3 mM)
[4]; 0% to 95% RH, 10% per step, 1 hour per increment
  Mass uptake (DVS): 0.035 wt %
[4]; DVS
  Hygroscopicity (in words): non-hygroscopic; also recorded: not hygroscopic
[4]; after DVS up to 95% RH
  Stability under humid conditions (XRPD, DSC/TGA, microscopy pre and post DVS): stable under these humid conditions

## COc1ccc(COc2c(/C=C/C(=O)NO)ccc(OC)c2CC=C(C)C)cc1 [Crystal Form B]
[5]; seeds of Crystal Form A, slurrying at 50° C.
  Conversion on seeding with Crystal Form A: could not be converted into Crystal Form A
[5]; slurry in water
  Stability in water (in words): very stable in water; also recorded: remained stable in water
[5]; water, room temperature, 4 hours, 24 hours, 4 days and 7 days
  Changes in XRPD on slurrying in water: No changes were observed in the XRPD

## COc1ccc(COc2c(/C=C/C(=O)NO)ccc(OC)c2CC=C(C)C)cc1 [Crystal Form C]
[6]
  Stability of the polymorphic form: unstable and converted into Crystal Form D soon
[6]; listed as Cystal Form C
  Stability of the polymorphic form: not a stable form and converted into polymorphic Crystal Form D

## COc1ccc(COc2c(/C=C/C(=O)NO)ccc(OC)c2CC=C(C)C)cc1 [amorphous material of Compound BMX]
[1]; listed as amorphous form
  Degradation: 20%
[7]; solvent 2-Ethly-1-butanol
  solubility at 24 h: 8800 µg/mL (≈ 22.1 mM)
  USP classification: Slightly soluble
[7]; solvent Acetonitrile
  solubility at 15 min: 10000 to 33000 µg/mL (≈ 25.2 to 83 mM)
  USP classification: Sparingly soluble
[7]; solvent Anisole
  solubility at 24 h: 9700 µg/mL (≈ 24.4 mM)
  USP classification: Slightly soluble
[7]; solvent Dimethyl sulfoxide
  solubility at 15 min: 31000 to 94000 µg/mL (≈ 78 to 236 mM)
  USP classification: Soluble
[7]; solvent Ethyl butyl ketone
  solubility at 15 min: 10000 to 33000 µg/mL (≈ 25.2 to 83 mM)
  USP classification: Sparingly soluble
[7]; solvent Ethyl sulfoxide
  solubility at 24 h: 6900 µg/mL (≈ 17.4 mM)
  USP classification: Slightly soluble
[7]; solvent Methanol
  solubility at 15 min: 31000 to 94000 µg/mL (≈ 78 to 236 mM)
  USP classification: Soluble
[7]; [8]
  solubility at 24 h: 3300 µg/mL (≈ 8.3 mM)
  USP classification: Slightly soluble
[7]; solvent Water
  USP classification: Practically insoluble
[7]; solvent n-Heptane
  USP classification: Practically insoluble
[6]; listed as amorphous solid
  Stability of the polymorphic form: converted into a new polymorphic form: Crystal Form E
